From patent US20250179055A1, “Substituted 2-(pyrrolidine-3-yl)acetic acid derivative, preparation method and use thereof” (INNOVSTONE THERAPEUTICS LIMITED, priority 2023, published 2025)

Biological target: Lp(a) assembly in HepG2 cells overexpressing ApoA protein (Homo sapiens (Human), UniProt P08519)
Assay: ELISA assay on screening Lp(a) assembly inhibition
Assay type: cell-based
Conditions: HepG2 cells overexpressing ApoA protein, 24 h, ELISA of supernatant
Description: Test Example 1 and Methods of ELISA Assay on Screening Lp(a) Assembly Inhibition
• 1) Preheated the culture media, DPBS, and pancreatin in a 37° C. water bath in advance. • 2) Digested cells with pancreatin, transferred the cell suspension to a 15 mL centrifuge tube, and centrifuged at 1000 rpm for 5 min. • 3) Resuspended the cells with culture media and transferred the cell suspension to a new T75 cell culture flask. • 4) Cultured at 37° C. in a 5% CO2 incubator.
• 1) Seeded HepG2 cells overexpressing of ApoA protein into a 96-well plate at 100 μL per well and incubated overnight for attachment. • 2) Replaced with fresh culture media the next day, then added diluted compounds, and cultured the cell plate in a 5% CO2, 37° C. incubator for 24 h.
• 1) Added 10 μL of 1.5 M EACA to each well. • 2) Centrifuged at 1000 rpm for 1 min, and transferred 100 μL of cell culture supernatant to a pre-coated ELISA plate.
• 1) Added 100 μL of capture antibody to each well of a pre-coated ELISA plate and incubated overnight at 25° C. • 2) Added 300 μL of washing solution to each well and washed 5 times for 1 min each time. • 3) Added 100 μL of blocking solution to each well and incubated at 25° C. for 2 h. • 4) Added 300 μL of washing solution to each well and washed 5 times for 1 min each time. • 5) Added 100 μL of sample to each well and incubated at 25° C. for 1 h. • 6) Added 300 μL of washing solution to each well and washed 5 times for 1 min each time. • 7) Added 100 μL of detection antibody to each well and incubated at 25° C. for 1 h. • 8) Added 300 μL of washing solution to each well and washed 5 times for 1 min each time. • 9) Added 100 μL substrate solution (Color Reagent A: Color Reagent B, 1:1) to each well and incubated for 20 min at 25° C. in the dark. • 10) Added […] of stop solution to each well, gently blowed and sucked several times with the pipette tip, and read within 5 min.
[formula] • X: cpd concentration • Y: inhibition % • Top and Bottom: Plateaus in same units as Y • log IC50: same log units as X • HillSlope: Slope factor or Hill slope

Sequence of Lp(a) assembly in HepG2 cells overexpressing ApoA protein (P08519 20-2040): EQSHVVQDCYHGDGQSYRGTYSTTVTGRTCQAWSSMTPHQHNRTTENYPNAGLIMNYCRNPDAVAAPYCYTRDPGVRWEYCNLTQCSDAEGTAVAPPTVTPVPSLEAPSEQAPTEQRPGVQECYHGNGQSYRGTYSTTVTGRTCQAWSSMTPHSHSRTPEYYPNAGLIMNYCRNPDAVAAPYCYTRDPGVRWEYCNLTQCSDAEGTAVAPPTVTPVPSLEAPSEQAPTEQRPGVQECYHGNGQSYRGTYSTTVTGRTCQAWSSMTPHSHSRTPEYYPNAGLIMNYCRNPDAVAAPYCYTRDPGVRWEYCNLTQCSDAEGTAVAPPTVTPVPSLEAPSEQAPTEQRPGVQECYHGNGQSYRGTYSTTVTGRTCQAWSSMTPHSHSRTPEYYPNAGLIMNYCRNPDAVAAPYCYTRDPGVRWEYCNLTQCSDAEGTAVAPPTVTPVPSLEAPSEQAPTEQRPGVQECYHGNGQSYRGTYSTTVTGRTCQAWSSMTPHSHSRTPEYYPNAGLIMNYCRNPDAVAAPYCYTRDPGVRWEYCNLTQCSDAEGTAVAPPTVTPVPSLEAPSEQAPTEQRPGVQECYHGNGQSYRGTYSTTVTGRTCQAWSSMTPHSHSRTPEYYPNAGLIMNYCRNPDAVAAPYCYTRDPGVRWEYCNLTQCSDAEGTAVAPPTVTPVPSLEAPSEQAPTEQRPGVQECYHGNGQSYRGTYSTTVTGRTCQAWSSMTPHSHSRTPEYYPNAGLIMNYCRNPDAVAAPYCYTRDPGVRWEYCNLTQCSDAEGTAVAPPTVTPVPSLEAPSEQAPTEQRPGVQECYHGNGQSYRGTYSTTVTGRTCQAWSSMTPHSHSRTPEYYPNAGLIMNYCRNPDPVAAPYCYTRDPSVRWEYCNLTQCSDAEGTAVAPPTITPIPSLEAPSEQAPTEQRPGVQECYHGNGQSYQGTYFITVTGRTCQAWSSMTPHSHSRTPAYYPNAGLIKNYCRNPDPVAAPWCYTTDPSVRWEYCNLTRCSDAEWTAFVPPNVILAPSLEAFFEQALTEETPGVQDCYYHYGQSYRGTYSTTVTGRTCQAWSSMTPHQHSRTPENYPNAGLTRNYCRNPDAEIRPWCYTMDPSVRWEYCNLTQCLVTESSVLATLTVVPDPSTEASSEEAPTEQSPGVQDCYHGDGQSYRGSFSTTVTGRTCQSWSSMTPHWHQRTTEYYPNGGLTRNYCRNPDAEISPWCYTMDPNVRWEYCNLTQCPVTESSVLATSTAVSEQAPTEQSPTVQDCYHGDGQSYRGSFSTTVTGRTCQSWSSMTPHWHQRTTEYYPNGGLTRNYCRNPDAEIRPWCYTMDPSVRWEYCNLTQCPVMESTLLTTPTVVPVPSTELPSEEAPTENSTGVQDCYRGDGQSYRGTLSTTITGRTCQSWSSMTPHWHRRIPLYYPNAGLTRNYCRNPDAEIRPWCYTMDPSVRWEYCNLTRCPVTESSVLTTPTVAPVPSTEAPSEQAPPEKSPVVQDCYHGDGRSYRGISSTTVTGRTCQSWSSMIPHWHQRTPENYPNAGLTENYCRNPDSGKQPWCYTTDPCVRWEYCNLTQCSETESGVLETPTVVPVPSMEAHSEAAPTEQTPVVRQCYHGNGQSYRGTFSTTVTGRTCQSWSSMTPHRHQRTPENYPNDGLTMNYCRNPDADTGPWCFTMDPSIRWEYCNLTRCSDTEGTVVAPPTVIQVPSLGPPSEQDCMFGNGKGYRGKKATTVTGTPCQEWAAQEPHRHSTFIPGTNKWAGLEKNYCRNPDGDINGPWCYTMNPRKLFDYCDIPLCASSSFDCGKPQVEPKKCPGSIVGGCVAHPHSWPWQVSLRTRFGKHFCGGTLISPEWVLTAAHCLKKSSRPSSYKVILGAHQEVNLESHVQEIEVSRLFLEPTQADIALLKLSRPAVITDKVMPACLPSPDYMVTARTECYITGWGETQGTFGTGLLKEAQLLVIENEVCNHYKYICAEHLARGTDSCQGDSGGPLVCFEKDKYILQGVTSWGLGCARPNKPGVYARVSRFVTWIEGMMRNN

SMILES	IC50 [nM]
O=C(O)C(Cc1cccc(C(=O)N(CCOc2cccc(C[C@H](C(=O)O)[C@H]3CCNC3)c2)Cc2cccc(C[C@H](C(=O)O)[C@H]3CCNC3)c2)c1)C1CCNC1 (stereo in doubt) [Compound 97, (S)-3-(3-((3-((S)-2-carboxy-2-((R)-pyrrolidin-3-yl)ethyl)-N-(2-(3-((S)-2-carboxy-2-((R)-pyrrolidin-3-yl)ethyl)phenoxy)ethyl)benzamido)methyl)phenyl)-2-((R)-pyrrolidin-3-yl)propanoic acid]	1.46
O=C(Cc1cccc(CC(C(=O)O)C2CCNC2)c1)NCc1cccc(C[C@H](C(=O)O)[C@H]2CCNC2)c1 (stereo in doubt) [Compound 143, (S)-3-(3-(2-((3-((S)-2-carboxy-2-((R)-pyrrolidin-3-yl)ethyl)benzyl)amino)-2-oxoethyl)phenyl)-2-((R)-pyrrolidin-3-yl)propanoic acid]	3.81
N[C@@H](CCCCN(Cc1cc(F)cc(C[C@H](C(=O)O)[C@H]2CCNC2)c1)Cc1cc(F)cc(C[C@H](C(=O)O)[C@H]2CCNC2)c1)C(=O)O [Compound 5, (2S,2′S)-3,3′-(((((S)-5-amino-5-carboxypentyl)azanediyl)bis(methylene))bis(5-fluoro-3,1-phenylene))bis(2-((R)-pyrrolidin-3-yl)propanoic acid)]	4.12
O=C(O)[C@@H](Cc1cccc(CN(Cc2cccc(C[C@H](C(=O)O)[C@H]3CCNC3)c2)Cc2coc3ccc(C[C@H](C(=O)O)[C@H]4CCNC4)cc23)c1)[C@H]1CCNC1 [Compound 6, (2S,2′S)-3,3′-(((((5-((S)-2-carboxy-2-((R)-pyrrolidin-3-yl)ethyl)benzofuran-3-yl)methyl)azanediyl)bis(methylene))bis(3,1-phenylene))bis(2-((R)-pyrrolidin-3-yl)propanoic acid)]	1.13
O=C(O)[C@@H](Cc1cccc(CN(Cc2cccc(C[C@H](C(=O)O)[C@H]3CCNC3)c2)Cc2cc3ccc(C[C@H](C(=O)O)[C@H]4CCNC4)cc3s2)c1)[C@H]1CCNC1 [Compound 11, (2S,2′S)-3,3′-(((((6-((S)-2-carboxy-2-((R)-pyrrolidin-3-yl)ethyl)benzo[b]thiophen-2-yl)methyl)azanediyl)bis(methylene))bis(3,1-phenylene))bis(2-((R)-pyrrolidin-3-yl)propanoic acid)]	0.89
O=C(O)[C@@H](Cc1cccc(CN(Cc2cccc(C[C@H](C(=O)O)[C@H]3CCNC3)c2)C(=O)c2cc(F)cc(C[C@H](C(=O)O)[C@H]3CCNC3)c2)c1)[C@H]1CCNC1 [Compound 12, (2S,2′S)-3,3′-((((3-((S)-2-carboxy-2-((R)-pyrrolidin-3-yl)ethyl)-5-fluorobenzoyl)azanediyl)bis(methylene))bis(3,1-phenylene))bis(2-((R)-pyrrolidin-3-yl)propanoic acid)]	1.17
O=C(O)[C@@H](Cc1ccc2occ(CN(Cc3coc4ccc(C[C@H](C(=O)O)[C@H]5CCNC5)cc34)Cc3coc4ccc(C[C@H](C(=O)O)[C@H]5CCNC5)cc34)c2c1)[C@H]1CCNC1 [Compound 47, (2S,2′S,2″S)-3,3′,3″-((nitrilotris(methylene))tris(benzofuran-3,5-diyl))tris(2-((R)-pyrrolidin-3-yl)propanoic acid)]	1.03
O=C(O)[C@@H](Cc1ccc2scc(CN(Cc3csc4ccc(C[C@H](C(=O)O)[C@H]5CCNC5)cc34)Cc3csc4ccc(C[C@H](C(=O)O)[C@H]5CCNC5)cc34)c2c1)[C@H]1CCNC1 [Compound 49, (2S,2′S,2″S)-3,3′,3″-((nitrilotris(methylene))tris(benzo[b]thiophene-3,5-diyl))tris(2-((R)-pyrrolidin-3-yl)propanoic acid)]	3.22
O=C(O)[C@@H](Cc1cccc(CCN(CCc2cccc(C[C@H](C(=O)O)[C@H]3CCNC3)c2)CCc2cccc(C[C@H](C(=O)O)[C@H]3CCNC3)c2)c1)[C@H]1CCNC1 [Compound 65, (2S,2′S,2″S)-3,3′,3″-((nitrilotris(ethane-2,1-diyl))tris(benzene-3,1-diyl))tris(2-((R)-pyrrolidin-3-yl)propanoic acid)]	0.87
O=C(O)[C@@H](Cc1ccc2occ(CCN(CCc3coc4ccc(C[C@H](C(=O)O)[C@H]5CCNC5)cc34)CCc3coc4ccc(C[C@H](C(=O)O)[C@H]5CCNC5)cc34)c2c1)[C@H]1CCNC1 [Compound 67, (2S,2′S,2″S)-3,3′,3″-((nitrilotris(ethane-2,1-diyl))tris(benzofuran-3,5-diyl))tris(2-((R)-pyrrolidin-3-yl)propanoic acid)]	8.55
O=C(O)[C@@H](Cc1cccc(CCN(CCOc2cccc(C[C@H](C(=O)O)[C@H]3CCNC3)c2)CCc2cccc(C[C@H](C(=O)O)[C@H]3CCNC3)c2)c1)[C@H]1CCNC1 [Compound 71, (2S,2′S)-3,3′-((((2-(3-((S)-2-carboxy-2-((R)-pyrrolidin-3-yl)ethyl)phenoxy)ethyl)azanediyl)bis(ethane-2,1-diyl))bis(3,1-phenylene))bis(2-((R)-pyrrolidin-3-yl)propanoic acid)]	0.54
O=C(CN(CCOc1cccc(C[C@H](C(=O)O)[C@H]2CCNC2)c1)CC(=O)c1cccc(C[C@H](C(=O)O)[C@H]2CCNC2)c1)c1cccc(C[C@H](C(=O)O)[C@H]2CCNC2)c1 [Compound 80, (2S,2′S)-3,3′-((2,2′-((2-(3-((S)-2-carboxy-2-((R)-pyrrolidin-3-yl)ethyl)phenoxy)ethyl)azanediyl)bis(acetyl))bis(3,1-phenylene))bis(2-((R)-pyrrolidin-3-yl)propanoic acid)]	2.31
O=C(O)[C@@H](Cc1cccc(CCN(CCc2cccc(C[C@H](C(=O)O)[C@H]3CCNC3)c2)C(=O)COc2cccc(C[C@H](C(=O)O)[C@H]3CCNC3)c2)c1)[C@H]1CCNC1 [Compound 81, (2S,2′S)-3,3′-((((2-(3-((S)-2-carboxy-2-((R)-pyrrolidin-3-yl)ethyl)phenoxy)acetyl)azanediyl)bis(ethane-2,1-diyl))bis(3,1-phenylene))bis(2-((R)-pyrrolidin-3-yl)propanoic acid)]	0.85
[2H]C([2H])(c1cccc(C[C@H](C(=O)O)[C@H]2CCNC2)c1)N(Cc1cccc(C[C@H](C(=O)O)[C@H]2CCNC2)c1)C([2H])([2H])c1cccc(C[C@H](C(=O)O)[C@H]2CCNC2)c1 [Compound 93, (2S,2′S)-3,3′-((((3-((S)-2-carboxy-2-((R)-pyrrolidin-3-yl)ethyl)benzyl)azanediyl)bis(methylene-d2))bis(3,1-phenylene))bis(2-((R)-pyrrolidin-3-yl)propanoic acid)]	0.81
[2H]C([2H])(c1cccc(C[C@H](C(=O)O)[C@H]2CCNC2)c1)N(Cc1cccc(C[C@H](C(=O)O)[C@H]2CCNC2)c1)Cc1cccc(C[C@H](C(=O)O)[C@H]2CCNC2)c1 [Compound 94, (2S,2′S)-3,3′-(((((3-((S)-2-carboxy-2-((R)-pyrrolidin-3-yl)ethyl)phenyl)methyl-d2)azanediyl)bis(methylene))bis(3,1-phenylene))bis(2-((R)-pyrrolidin-3-yl)propanoic acid)]	0.65
O=C(O)[C@@H](Cc1cccc(CCN(Cc2cccc(C[C@H](C(=O)O)[C@H]3CCNC3)c2)C(=O)c2cccc(C[C@H](C(=O)O)[C@H]3CCNC3)c2)c1)[C@H]1CCNC1 [Compound 99, (S)-3-(3-(2-(3-((S)-2-carboxy-2-((R)-pyrrolidin-3-yl)ethyl)-N-(3-((S)-2-carboxy-2-((R)-pyrrolidin-3-yl)ethyl)benzyl)benzamido)ethyl)phenyl)-2-((R)-pyrrolidin-3-yl)propanoic acid]	0.96
O=C(O)[C@@H](Cc1cc2c(CN(Cc3cccc4sc(C[C@H](C(=O)O)[C@H]5CCNC5)cc34)Cc3cccc4sc(C[C@H](C(=O)O)[C@H]5CCNC5)cc34)cccc2s1)[C@H]1CCNC1 [Compound 101, (2S,2′S,2″S)-3,3′,3″-((nitrilotris(methylene))tris(benzo[b]thiophene-4,2-diyl))tris(2-((R)-pyrrolidin-3-yl)propanoic acid)]	2.71
O=C(O)[C@@H](Cc1cc(CN(Cc2cc(C[C@H](C(=O)O)[C@H]3CCNC3)cc3ccoc23)Cc2cc(C[C@H](C(=O)O)[C@H]3CCNC3)cc3ccoc23)c2occc2c1)[C@H]1CCNC1 [Compound 102, (2S,2′S,2″S)-3,3′,3″-((nitrilotris(methylene))tris(benzofuran-7,5-diyl))tris(2-((R)-pyrrolidin-3-yl)propanoic acid)]	0.74
O=C(O)[C@@H](Cc1cc2ccc(CN(Cc3ccc4cc(C[C@H](C(=O)O)[C@H]5CCNC5)sc4c3)Cc3ccc4cc(C[C@H](C(=O)O)[C@H]5CCNC5)sc4c3)cc2s1)[C@H]1CCNC1 [Compound 103, (2S,2′S,2″S)-3,3′,3″-((nitrilotris(methylene))tris(benzo[b]thiophene-6,2-diyl))tris(2-((R)-pyrrolidin-3-yl)propanoic acid)]	2.11
